Reference: patent US20110190503A1, “Thiazolopyridin-2-yloxy-phenyl and thiazolopyrazin-2-yloxy-phenyl amines as modulators of leukotriene A4 hydrolase” (Janssen Pharmaceutical NV, priority 2008, published 2011)

Assays:
[1] = target: T1, recombinant human LTA4 hydrolase (rhLTA4H) (Homo sapiens, UniProt P09960); test: Recombinant human LTA4 hydrolase assay for LTA4 hydrolase inhibitor activity; assay type: biochemical; details: rhLTA4H, LTA4 substrate, LTB4 by immunoassay; single determination or average; read-out: IC50
T1 construct: made in house; host or cells: Spodoptera frugiperda (Sf-9) cells, recombinant baculovirus (pFastBac1)
T1 sequence (P09960 1-611): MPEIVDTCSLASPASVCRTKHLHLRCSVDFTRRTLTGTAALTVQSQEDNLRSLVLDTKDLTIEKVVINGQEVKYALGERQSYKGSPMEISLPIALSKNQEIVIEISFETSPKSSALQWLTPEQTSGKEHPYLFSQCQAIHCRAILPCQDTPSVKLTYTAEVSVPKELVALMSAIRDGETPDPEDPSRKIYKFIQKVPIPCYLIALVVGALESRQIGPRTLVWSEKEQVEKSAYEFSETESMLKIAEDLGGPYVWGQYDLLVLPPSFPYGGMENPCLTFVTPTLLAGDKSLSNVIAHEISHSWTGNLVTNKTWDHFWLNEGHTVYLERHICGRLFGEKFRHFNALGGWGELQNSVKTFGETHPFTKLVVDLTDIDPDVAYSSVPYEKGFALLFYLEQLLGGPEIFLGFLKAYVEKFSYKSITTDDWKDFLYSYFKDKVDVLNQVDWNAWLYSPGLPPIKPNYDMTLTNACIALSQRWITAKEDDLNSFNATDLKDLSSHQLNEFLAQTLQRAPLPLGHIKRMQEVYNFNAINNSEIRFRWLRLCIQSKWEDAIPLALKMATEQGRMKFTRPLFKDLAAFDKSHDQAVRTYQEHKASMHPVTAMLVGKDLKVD
Outline: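 Recombinant human LTA4H from baculovirus-infected Sf-9 cells (10 ng) pre-incubated 10 min at rt with compound (10% DMSO in dilutions), then reacted with free-acid LTA4 for 30 min at rt. LTB4 measured by ELISA; IC50 by nonlinear regression. Values are single determinations or averages.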

neutrophil influx = test: Murine arachidonic acid-induced inflammation model: neutrophil influx in ear, myeloperoxidase activity (% Inh. MPO); assay type: in vivo; details: Mus musculus, female Balb/c mice, 30 mg/kg oral gavage, ear biopsy 3 h after topical arachidonic acid, number of determinations in parentheses
Description: (§1) Assay 4: Murine Arachidonic Acid-Induced Inflammation Model
(§2) LTA4H inhibitor compounds of the present invention were dissolved in 20% cyclodextran/H2O at a concentration of 3 mg/mL. The solutions were administered by oral gavage to female Balb/c mice weighing approximately 20 grams each (0.2 mL per mouse, 30 mg of LTA4H inhibitor compound per kg). Sixty minutes after being administered an LTA4 inhibitor, each mouse received topical application of 20 μL of arachidonic acid (100 mg/mL in acetone) to the left ear and 20 μL of acetone only to the right ear. After 3 h, the mice were sacrificed, blood was withdrawn in heparinized syringes, and 8 mm ear biopsies were taken. Ear biopsies were weighed to determine edema and then frozen at −80° C. until needed for determination of neutrophil influx.
Neutrophil influx was quantified by measuring the activity of myeloperoxidase (MPO), a neutrophil-specific enzyme. The ear biopsies were homogenized in 0.5 mL extraction buffer (0.3 M sucrose, 0.22% (w/v) hexadecyl trimethyl ammonium bromide (CTAB), and 2.5 mM citrate prepared from 0.5 M citrate stock solution (pH 5.0)), in a Fast-Prep-24 (MP™) (40 seconds at 6 mps). Debris was removed by centrifugation at 14000×g for 10 min. Aliquots of 10 μL of the resulting supernatant were added to wells of a microtiter plate, along with 90-μL aliquots of dilution buffer (10 mM citrate, 0.22% CTAB), followed by addition of 20 μL TMB liquid substrate system (Sigma Chemical Co.) to each sample well. The microtiter plate contents were held at room temperature until the sample with the highest concentration of MPO reached an absorbance value of 0.4 at 650 nm. The reaction was stopped by addition of 50 μL 1 M H2SO4 to each sample well, and the myeloperoxidase activity in each sample was determined from the absorbance at 405 nm. The background value from the right ear, treated only with acetone, was subtracted from that for the left ear, treated with arachidonic acid in acetone, for each animal. The percent inhibition of neutrophil influx (% Inh. MPO) by compounds of the invention was determined by comparison to animals treated identically, except that the solution administered by oral gavage was devoid of inhibitor compound.
(§3) The number of determinations is indicated in parentheses following each value

[2] = system: ex vivo stimulated LTB4 production; test: Murine arachidonic acid-induced inflammation model: ex vivo stimulated LTB4 production (% Inh. LTB4); details: Mus musculus; female Balb/c mice, 30 mg/kg oral gavage; blood taken 3 h after arachidonic acid, ex vivo A23187 stimulation; number of determinations in parentheses
Description: as §1, §2
One hundred-microliter aliquots of heparinized blood were added to wells of a microtiter plate, along with equal volumes of RPMI-1640 medium, and calcium ionophore A23187 was added to each sample well (final concentration=[…]). The microtiter plate contents were incubated for 30 min at 37° C. in a humidified incubator. The reaction was terminated by centrifugation (833×g, 10 min at 4° C.). Supernatants were analyzed for LTB4 by a commercially available enzyme-linked immunoassay (Cayman Chemical Co.) in accordance with the manufacturer's instructions. The percent inhibition of ex vivo stimulated LTB4 production (% Inh. LTB4) was determined by comparison to animals treated identically except that the solution administered by oral gavage was devoid of inhibitor compound.
as §3

[3] = system: LTB4 production by calcium ionophore-stimulated murine blood; test: LTB4 production by calcium ionophore-stimulated murine blood for LTA4H inhibitor activity; assay type: cell-based, CD-1 mice; details: Mus musculus; murine blood diluted 1 in 15, calcium ionophore A23187, LTB4 by immunoassay; read-out: IC50
Outline: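 Heparinized CD-1 mouse blood pre-incubated with compound 15 min at 37° C, then stimulated with calcium ionophore A23187 (7 μg/mL final) for 30 min. LTB4 in supernatant measured by enzyme immunoassay; values are single or averaged determinations, with SD for n≥3.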

Structure (SMILES) | IC50 [1] [nM] | IC50 [3] [nM] | inhibition in vivo at 30 mg/kg (neutrophil influx) [%] | inhibition at 30 mg/kg [2] [%]
CC(=O)N[C@H]1C[C@H]2CC[C@@H](C1)N2CCc1ccc(Oc2nc3cccnc3s2)cc1 [Example 52, meso-N-[(3-endo)-8-{2-[4-([1,3]Thiazolo[5,4-b]pyridin-2-yloxy)phenyl]ethyl}-8-azabicyclo[3.2.1]oct-3-yl]acetamide] | 1 | 13 | 60.2 | 78.3
NC(=O)N1C[C@H]2CC[C@@H](C1)N2CCc1ccc(Oc2nc3ncccc3s2)cc1 [Example 54, meso-8-{2-[4-([1,3]Thiazolo[4,5-b]pyridin-2-yloxy)phenyl]ethyl}-3,8-diazabicyclo[3.2.1]octane-3-carboxamide] | 9.6 | 75 ± 71 | 87.7 | 81.2
CCN(CCO)CCc1ccc(Oc2nc3ncccc3s2)cc1 [Example 56, 2-(Ethyl{2-[4-([1,3]thiazolo[4,5-b]pyridin-2-yloxy)phenyl]ethyl}amino)ethanol] | 1.9 | 5 | 81.6 | 71.2
c1cnc2nc(Oc3ccc(CCN4CCCC4)cc3)sc2c1 [Example 61, 2-[4-(2-Pyrrolidin-1-ylethyl)phenoxy][1,3]thiazolo[4,5-b]pyridine] | 4 | 11 | 62.8 | 67.4
CC(=O)N[C@H]1C[C@H]2CC[C@@H](C1)N2CCc1ccc(Oc2nc3ncccc3s2)cc1 [Example 76, meso-N-[(3-endo)-8-{2-[4-([1,3]Thiazolo[4,5-b]pyridin-2-yloxy)phenyl]ethyl}-8-azabicyclo[3.2.1]oct-3-yl]acetamide] | 0.5 | 65 | 78.3 | 85.3
c1cnc2nc(Oc3ccc(CN4CCCC4)cc3)sc2c1 [Example 84, 2-[4-(Pyrrolidin-1-ylmethyl)phenoxy][1,3]thiazolo[4,5-b]pyridine] | 2.1 | 39 | 72 | 53.9
c1cnc2nc(Oc3ccc(CN4CCCCC4)cc3)sc2c1 [Example 85, 2-[4-(Piperidin-1-ylmethyl)phenoxy][1,3]thiazolo[4,5-b]pyridine] | 2.9 | 37 | 48.4 | 66.8
NC(=O)C1CCN(Cc2ccc(Oc3nc4ncccc4s3)cc2)CC1 [Example 100, 1-[4-([1,3]Thiazolo[4,5-b]pyridin-2-yloxy)benzyl]piperidine-4-carboxamide] | 7.2 | 110 | 88.7 | 85.3
OC[C@@H]1CCCN1Cc1ccc(Oc2nc3ncccc3s2)cc1 [Example 108, {(2S)-1-[4-([1,3]Thiazolo[4,5-b]pyridin-2-yloxy)benzyl]pyrrolidin-2-yl}methanol] | 2.4 | 8 | 71.4 | 79.8
CCN(CC)Cc1ccc(Oc2nc3ncccc3s2)cc1 [Example 111, N-Ethyl-N-[4-([1,3]thiazolo[4,5-b]pyridin-2-yloxy)benzyl]ethanamine] | 6.6 | 30 | 66.9 | 56.8
CC(=O)N1C[C@@H]2C[C@H]1CN2Cc1ccc(Oc2nc3ncc(Cl)cc3s2)cc1 [Example 122, 2-(4-{[(1S,4S)-5-Acetyl-2,5-diazabicyclo[2.2.1]hept-2-yl]methyl}phenoxy)-6-chloro[1,3]thiazolo[4,5-b]pyridine] | 48 | 270 | 66.9 | 72

Second part, led by results:

IC50 [1] [nM] | IC50 [3] [nM] | Structure (SMILES) | inhibition in vivo at 30 mg/kg (neutrophil influx) [%] | inhibition at 30 mg/kg [2] [%]
9 | 19 | c1cnc2nc(Oc3ccc(CCN4CCOCC4)cc3)sc2c1 [Example 59, 2-[4-(2-Morpholin-4-ylethyl)phenoxy][1,3]thiazolo[4,5-b]pyridine] | 89.9 | 92.7
3 | 15 | c1cnc2nc(Oc3ccc(CCN4CCCCC4)cc3)sc2c1 [Example 60, 2-[4-(2-Piperidin-1-ylethyl)phenoxy][1,3]thiazolo[4,5-b]pyridine] | 35.8 | 69.5
12 | 40 | NC(=O)C1CCN(CCc2ccc(Oc3nc4ncccc4s3)cc2)CC1 [Example 66, 1-{2-[4-([1,3]Thiazolo[4,5-b]pyridin-2-yloxy)phenyl]ethyl}piperidine-4-carboxamide] | 60 | 76.2
6 | 20 | CC(=O)N1C[C@H]2C[C@@H]1CN2CCc1ccc(Oc2nc3ncccc3s2)cc1 [Example 79, 2-(4-{2-[(1R,4R)-5-Acetyl-2,5-diazabicyclo[2.2.1]hept-2-yl]ethyl}phenoxy)[1,3]thiazolo[4,5-b]pyridine] | 82.2 | 86.7
2 | 80 | NC(=O)N1C[C@H]2C[C@@H]1CN2CCc1ccc(Oc2nc3ncccc3s2)cc1 [Example 80, (1R,4R)-5-{2-[4-([1,3]Thiazolo[4,5-b]pyridin-2-yloxy)phenyl]ethyl}-2,5-diazabicyclo[2.2.1]heptane-2-carboxamide] | 37 | 72.1
12 | 60 | c1cnc2nc(Oc3ccc(CN4CCOCC4)cc3)sc2c1 [Example 86, 2-[4-(Morpholin-4-ylmethyl)phenoxy][1,3]thiazolo[4,5-b]pyridine] | 51.5 | 70.8
42 | 110 | CC(C)(O)C1CCN(Cc2ccc(Oc3nc4ncccc4s3)cc2)CC1 [Example 89, 2-{1-[4-([1,3]Thiazolo[4,5-b]pyridin-2-yloxy)benzyl]piperidin-4-yl}propan-2-ol] | 79.1 | 79.5
110 ± 37 | 150 | CC(=O)N1C[C@@H]2C[C@H]1CN2Cc1ccc(Oc2nc3nccnc3s2)cc1 [Example 120, 2-(4-{[(1S,4S)-5-Acetyl-2,5-diazabicyclo[2.2.1]hept-2-yl]methyl}phenoxy)[1,3]thiazolo[4,5-b]pyrazine] | 48.1 | 57.8
